In the test the target is T1, pmCiC (plasma membrane citrate transporter) (Homo sapiens, UniProt P53007).
T1 construct: gene SLC25A1; His-tagged pmCiC expressed in Sf9 cells, solubilized in dodecylmaltoside and purified by Ni-NTA
In words: Trp fluorescence quenching titration of purified protein. It counts as binding.

T1 sequence (P53007 14-311): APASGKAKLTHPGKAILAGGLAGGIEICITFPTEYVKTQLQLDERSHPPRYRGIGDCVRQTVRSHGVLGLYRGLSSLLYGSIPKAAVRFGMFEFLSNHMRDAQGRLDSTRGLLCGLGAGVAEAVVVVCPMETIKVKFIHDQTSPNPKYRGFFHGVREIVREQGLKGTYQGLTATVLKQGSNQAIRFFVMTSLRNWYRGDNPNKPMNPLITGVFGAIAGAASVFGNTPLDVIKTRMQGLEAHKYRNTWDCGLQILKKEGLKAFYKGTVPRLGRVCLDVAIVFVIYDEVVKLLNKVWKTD

A word on the Kd: it is the concentration at which binding is half-saturated. A high value points to lower affinity. Compound `O=C(O)CC(O)(CC(=O)O)C(=O)O` [citrate] came in with a Kd of 16 mM.

Values taken from article PMC7994318, “Cancer-associated cells release citrate to support tumour metastatic progression” (Life Science Alliance, 2021).
